Usually Ki stands for a dissociation constant, usually derived from enzyme kinetics or from competition with a known ligand. Broadly, the IC50 is the concentration needed to halve the response being measured.

Calls of active or inactive are those of the source.

Here are results for 3 molecules from ChEMBL document CHEMBL1201862, “PubChem BioAssay data set” (2004).

What all share (assay type): functional
Test [1] concerns the target Serine/threonine-protein kinase pim-1 (Homo sapiens, UniProt P11309).
Test [2] has as its target MAP kinase-activated protein kinase 2 (Homo sapiens, UniProt P49137).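 Further: measured as one member of a kinome-wide kinase panel.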
Test [3] deals with Glycogen synthase kinase-3 alpha (Homo sapiens, UniProt P49840).
Another test has as its target Aurora kinase B (Homo sapiens, UniProt Q96GD4).
The target of test [4] is Cyclin-dependent kinase 1 (Homo sapiens, UniProt P06493).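 Further: Kinome-wide panel profiling, with the target listed as panel member CDC2.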
Test [5] addresses Serine/threonine-protein kinase PLK1 (Homo sapiens, UniProt P53350).
The target in test [6] is Melanin-concentrating hormone receptor 1 (Homo sapiens, UniProt Q99705). In words: Late-stage fluorescence-based counterscreen for antagonists of the G-protein coupled receptor 7 (GPR7): cell-based dose response assay to identify antagonists of the melanin-concentrating hormone receptor 1 (MCHR1) Set 6.
Test [7] deals with Neuropeptides B/W receptor type 1 (Homo sapiens, UniProt P48145). In words: human NPBW1 receptor blockade, IC50 – cell-based, fluorescence, dose response, set 6, late-stage follow-up (AID 588583).
Test [8] deals with Protein kinase C theta type (Homo sapiens, UniProt Q04759). In words: Navigating the Kinome. Panel member name: PRKCQ.
The target in test [9] is Dual specificity protein kinase CLK2 (Homo sapiens, UniProt P49760).
Test [10] deals with Dual specificity mitogen-activated protein kinase kinase 1 (Homo sapiens, UniProt Q02750). In words: Navigating the Kinome. Panel member name: MAP2K1.
Test [11] addresses Tyrosine-protein kinase JAK2 (Homo sapiens, UniProt O60674).
The target of test [12] is Serine/threonine-protein kinase TBK1 (Homo sapiens, UniProt Q9UHD2). In words: Navigating the Kinome. Panel member name: TBK1.
For test [13], the target named is 5'-AMP-activated protein kinase catalytic subunit alpha-1 (Homo sapiens, UniProt Q13131).
The target in test [14] is ALK tyrosine kinase receptor (Homo sapiens, UniProt Q9UM73).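 Further: ALK tested as one member of a kinase panel screen.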
Test [15] has as its target Proto-oncogene tyrosine-protein kinase receptor Ret (Homo sapiens, UniProt P07949).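 Further: measured within a kinome-wide profiling panel, RET as the panel member.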
Test [16] addresses Tyrosine-protein kinase receptor TYRO3 (Homo sapiens, UniProt Q06418).
The target in test [17] is Serine/threonine-protein kinase D3 (Homo sapiens, UniProt O94806).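 Further: determined within a kinase panel screen, with PRKCN as the panel member.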
Test [18] has as its target Death-associated protein kinase 3 (Homo sapiens, UniProt O43293).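 Further: measured as one member of a kinome-wide profiling panel.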
In another test the target is Activin receptor type-1 (Homo sapiens, UniProt Q04771). In words: Navigating the Kinome. Panel member name: ACVR1.
The target of test [19] is Mitogen-activated protein kinase 8 (Homo sapiens, UniProt P45983).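 Further: value comes from one member of a kinome-wide kinase profiling panel.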
Another test has as its target Aurora kinase A (Homo sapiens, UniProt O14965).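 Further: value from the Navigating the Kinome kinase panel profiling, panel entry STK6.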
Test [20] has as its target Tyrosine-protein kinase BTK (Homo sapiens, UniProt Q06187).
The target in test [21] is Serine/threonine-protein kinase PAK 4 (Homo sapiens, UniProt O96013).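 Further: value obtained within a kinome profiling panel in which PAK4 was one of the panel members.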
Test [22] concerns the target Fibroblast growth factor receptor 1 (Homo sapiens, UniProt P11362).
The target in test [23] is Tyrosine-protein kinase JAK3 (Homo sapiens, UniProt P52333).
In test [24] the target is Mitogen-activated protein kinase 9 (Homo sapiens, UniProt P45984).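 Further: value from a kinome panel profiling assay, MAPK9 panel entry.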
In the next test the target is LIM domain kinase 1 (Homo sapiens, UniProt P53667). In words: Navigating the Kinome. Panel member name: LIMK1.
Test [25] has as its target Serine/threonine-protein kinase TAO1 (Homo sapiens, UniProt Q7L7X3).
Test [26] deals with High affinity nerve growth factor receptor (Homo sapiens, UniProt P04629).
For test [27], the target named is Mitogen-activated protein kinase kinase kinase kinase 2 (Homo sapiens, UniProt Q12851).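 Further: measured as one member of a kinome-wide kinase panel, with MAP4K2 as the panel entry.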
Test [28] concerns the target Hepatocyte growth factor receptor (Homo sapiens, UniProt P08581).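 Further: kinase panel profiling across the kinome, with MET as the panel member.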
Another test deals with Activated CDC42 kinase 1 (Homo sapiens, UniProt Q07912). The test can be described thus: Navigating the Kinome. Panel member name: ACK1.
Test [29] concerns the target Receptor-type tyrosine-protein kinase FLT3 (Homo sapiens, UniProt P36888).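 Further: FLT3 was tested as one member of a kinome-wide kinase panel.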
For test [30], the target named is Serine/threonine-protein kinase Chk1 (Homo sapiens, UniProt O14757).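 Further: measured as one member of a kinome-wide kinase profiling panel.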
The target of test [31] is Tyrosine-protein kinase ABL1 (Homo sapiens, UniProt P00519).
Test [32] addresses Vascular endothelial growth factor receptor 2 (Homo sapiens, UniProt P35968).
In test [33] the target is G protein-coupled receptor kinase 5 (Homo sapiens, UniProt P34947). In words: Navigating the Kinome. Panel member name: GPRK5.
In test [34] the target is Cyclin-dependent kinase 5 (Homo sapiens, UniProt Q00535).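 Further: CDK5 measured as one member of a kinase profiling panel.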
The target of test [35] is Insulin-like growth factor 1 receptor (Homo sapiens, UniProt P08069). In words: Navigating the Kinome. Panel member name: IGF1R.
The target of test [36] is Dual specificity tyrosine-phosphorylation-regulated kinase 1B (Homo sapiens, UniProt Q9Y463). The test can be described thus: Navigating the Kinome. Panel member name: DYRK1B.
For test [37], the target named is cAMP-dependent protein kinase catalytic subunit PRKX (Homo sapiens, UniProt P51817).
Test [38] has as its target Platelet-derived growth factor receptor alpha (Homo sapiens, UniProt P16234). In words: Navigating the Kinome. Panel member name: PDGFRA.
Test [39] deals with Leucine-rich repeat serine/threonine-protein kinase 2 (Homo sapiens, UniProt Q5S007).
Test [40] addresses Rho-associated protein kinase 1 (Homo sapiens, UniProt Q13464).
Test [41] deals with Tyrosine-protein kinase Fyn (Homo sapiens, UniProt P06241).
For test [42], the target named is Cyclin-dependent kinase 8 (Homo sapiens, UniProt P49336). The test can be described thus: Navigating the Kinome. Panel member name: CDK8.
The target in test [43] is Cyclin-dependent kinase 7 (Homo sapiens, UniProt P50613).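 Further: value comes from a kinome-wide kinase profiling panel in which CDK7 is one member.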
Test [44] has as its target Vascular endothelial growth factor receptor 1 (Homo sapiens, UniProt P17948).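 Further: measured within a kinome-wide profiling panel, FLT1 as the panel member.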
Test [45] concerns the target Glycogen synthase kinase-3 beta (Homo sapiens, UniProt P49841).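 Further: value comes from a broad kinome profiling panel, with GSK3B as the panel member.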
Test [46] deals with Cyclin-dependent kinase 9 (Homo sapiens, UniProt P50750).
Test [47] has as its target BDNF/NT-3 growth factors receptor (Homo sapiens, UniProt Q16620).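 Further: NTRK2 measured as one member of a broad kinome-wide kinase profiling panel.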
Test [48] concerns the target cAMP-dependent protein kinase catalytic subunit alpha (Homo sapiens, UniProt P17612).
For test [49], the target named is Dual specificity protein kinase CLK4 (Homo sapiens, UniProt Q9HAZ1).
The target of test [50] is Macrophage-stimulating protein receptor (Homo sapiens, UniProt Q04912). The test can be described thus: Navigating the Kinome. Panel member name: MST1R.
Test [51] addresses Macrophage colony-stimulating factor 1 receptor (Homo sapiens, UniProt P07333).
Test [52] deals with Dual specificity mitogen-activated protein kinase kinase 2 (Homo sapiens, UniProt P36507). The test can be described thus: Navigating the Kinome. Panel member name: MAP2K2.
The target of test [53] is Dual specificity tyrosine-phosphorylation-regulated kinase 1A (Homo sapiens, UniProt Q13627).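 Further: measured against DYRK1A as one member of a broad kinome profiling panel.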
Test [54] has as its target Inhibitor of nuclear factor kappa-B kinase subunit epsilon (Homo sapiens, UniProt Q14164). In words: Navigating the Kinome. Panel member name: IKBKE.
The target in test [55] is Calcium/calmodulin-dependent protein kinase type II subunit alpha (Homo sapiens, UniProt Q9UQM7). In words: Navigating the Kinome. Panel member name: CAMK2A.
Test [56] has as its target Leukocyte tyrosine kinase receptor (Homo sapiens, UniProt P29376). The test can be described thus: Navigating the Kinome. Panel member name: LTK.
In test [57] the target is Mitogen-activated protein kinase 14 (Homo sapiens, UniProt Q16539).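 Further: part of a kinome-wide panel, MAPK14 entry.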

Chain of Glycogen synthase kinase-3 alpha (P49840 whole entry): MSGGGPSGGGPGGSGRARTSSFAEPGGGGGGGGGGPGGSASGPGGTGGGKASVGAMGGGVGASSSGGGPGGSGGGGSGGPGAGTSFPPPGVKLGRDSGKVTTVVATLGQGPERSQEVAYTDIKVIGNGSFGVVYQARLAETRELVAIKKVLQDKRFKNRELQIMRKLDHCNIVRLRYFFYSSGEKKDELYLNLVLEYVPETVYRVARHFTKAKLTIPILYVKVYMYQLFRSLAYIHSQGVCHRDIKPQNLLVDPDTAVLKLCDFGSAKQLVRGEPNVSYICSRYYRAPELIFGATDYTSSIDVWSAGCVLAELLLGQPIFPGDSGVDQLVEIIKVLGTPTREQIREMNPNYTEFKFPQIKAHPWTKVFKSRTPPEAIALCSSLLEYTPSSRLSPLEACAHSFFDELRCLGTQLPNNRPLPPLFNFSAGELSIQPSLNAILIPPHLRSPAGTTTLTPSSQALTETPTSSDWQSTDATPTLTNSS
Chain of Aurora kinase B (Q96GD4 whole entry): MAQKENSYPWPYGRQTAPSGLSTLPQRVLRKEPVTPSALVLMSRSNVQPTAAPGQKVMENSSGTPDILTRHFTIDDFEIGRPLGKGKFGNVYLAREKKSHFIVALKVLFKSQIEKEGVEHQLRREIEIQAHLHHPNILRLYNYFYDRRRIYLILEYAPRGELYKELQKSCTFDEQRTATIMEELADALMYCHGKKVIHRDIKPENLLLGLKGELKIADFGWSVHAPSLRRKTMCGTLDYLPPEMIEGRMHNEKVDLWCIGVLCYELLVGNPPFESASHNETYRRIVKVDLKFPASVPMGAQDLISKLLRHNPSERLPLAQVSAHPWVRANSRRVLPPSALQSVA
Chain of Serine/threonine-protein kinase pim-1 (P11309 whole entry): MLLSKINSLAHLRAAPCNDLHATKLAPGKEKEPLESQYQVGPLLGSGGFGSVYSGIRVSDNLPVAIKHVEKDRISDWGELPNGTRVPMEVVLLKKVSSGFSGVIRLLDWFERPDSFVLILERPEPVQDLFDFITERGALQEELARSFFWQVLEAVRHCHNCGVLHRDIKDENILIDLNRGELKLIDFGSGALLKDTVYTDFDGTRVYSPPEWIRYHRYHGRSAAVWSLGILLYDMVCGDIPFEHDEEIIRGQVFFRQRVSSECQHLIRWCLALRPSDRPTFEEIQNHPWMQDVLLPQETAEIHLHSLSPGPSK
Chain of LIM domain kinase 1 (P53667 whole entry, the tested form may be a part): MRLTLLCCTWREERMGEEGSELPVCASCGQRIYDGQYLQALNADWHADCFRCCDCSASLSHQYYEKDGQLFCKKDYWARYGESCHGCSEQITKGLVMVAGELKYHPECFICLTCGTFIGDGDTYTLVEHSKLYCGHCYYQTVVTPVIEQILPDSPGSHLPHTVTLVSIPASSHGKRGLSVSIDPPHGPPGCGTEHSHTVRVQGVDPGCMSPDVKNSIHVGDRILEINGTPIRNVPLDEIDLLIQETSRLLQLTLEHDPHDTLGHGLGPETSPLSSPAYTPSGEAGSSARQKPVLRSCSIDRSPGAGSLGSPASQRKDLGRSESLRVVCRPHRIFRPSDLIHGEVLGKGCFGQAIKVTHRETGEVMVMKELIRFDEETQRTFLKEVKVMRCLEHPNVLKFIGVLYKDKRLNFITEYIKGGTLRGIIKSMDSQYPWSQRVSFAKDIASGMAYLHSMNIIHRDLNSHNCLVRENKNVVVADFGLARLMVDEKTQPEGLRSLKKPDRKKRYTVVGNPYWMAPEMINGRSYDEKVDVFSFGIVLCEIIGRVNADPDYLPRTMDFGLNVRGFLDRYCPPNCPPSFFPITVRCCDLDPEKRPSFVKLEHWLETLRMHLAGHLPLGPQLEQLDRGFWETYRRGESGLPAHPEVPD
Chain of Melanin-concentrating hormone receptor 1 (Q99705 whole entry): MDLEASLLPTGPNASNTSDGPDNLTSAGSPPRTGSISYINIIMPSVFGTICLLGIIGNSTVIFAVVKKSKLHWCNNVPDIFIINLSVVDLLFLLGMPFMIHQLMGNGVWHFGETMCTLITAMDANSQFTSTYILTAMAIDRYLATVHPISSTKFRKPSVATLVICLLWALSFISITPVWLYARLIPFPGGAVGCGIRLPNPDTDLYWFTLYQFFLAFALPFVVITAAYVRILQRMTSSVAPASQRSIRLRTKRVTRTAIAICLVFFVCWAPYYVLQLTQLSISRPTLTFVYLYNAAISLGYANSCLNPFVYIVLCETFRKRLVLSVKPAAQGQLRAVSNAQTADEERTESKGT
Chain of Platelet-derived growth factor receptor alpha (P16234 whole entry): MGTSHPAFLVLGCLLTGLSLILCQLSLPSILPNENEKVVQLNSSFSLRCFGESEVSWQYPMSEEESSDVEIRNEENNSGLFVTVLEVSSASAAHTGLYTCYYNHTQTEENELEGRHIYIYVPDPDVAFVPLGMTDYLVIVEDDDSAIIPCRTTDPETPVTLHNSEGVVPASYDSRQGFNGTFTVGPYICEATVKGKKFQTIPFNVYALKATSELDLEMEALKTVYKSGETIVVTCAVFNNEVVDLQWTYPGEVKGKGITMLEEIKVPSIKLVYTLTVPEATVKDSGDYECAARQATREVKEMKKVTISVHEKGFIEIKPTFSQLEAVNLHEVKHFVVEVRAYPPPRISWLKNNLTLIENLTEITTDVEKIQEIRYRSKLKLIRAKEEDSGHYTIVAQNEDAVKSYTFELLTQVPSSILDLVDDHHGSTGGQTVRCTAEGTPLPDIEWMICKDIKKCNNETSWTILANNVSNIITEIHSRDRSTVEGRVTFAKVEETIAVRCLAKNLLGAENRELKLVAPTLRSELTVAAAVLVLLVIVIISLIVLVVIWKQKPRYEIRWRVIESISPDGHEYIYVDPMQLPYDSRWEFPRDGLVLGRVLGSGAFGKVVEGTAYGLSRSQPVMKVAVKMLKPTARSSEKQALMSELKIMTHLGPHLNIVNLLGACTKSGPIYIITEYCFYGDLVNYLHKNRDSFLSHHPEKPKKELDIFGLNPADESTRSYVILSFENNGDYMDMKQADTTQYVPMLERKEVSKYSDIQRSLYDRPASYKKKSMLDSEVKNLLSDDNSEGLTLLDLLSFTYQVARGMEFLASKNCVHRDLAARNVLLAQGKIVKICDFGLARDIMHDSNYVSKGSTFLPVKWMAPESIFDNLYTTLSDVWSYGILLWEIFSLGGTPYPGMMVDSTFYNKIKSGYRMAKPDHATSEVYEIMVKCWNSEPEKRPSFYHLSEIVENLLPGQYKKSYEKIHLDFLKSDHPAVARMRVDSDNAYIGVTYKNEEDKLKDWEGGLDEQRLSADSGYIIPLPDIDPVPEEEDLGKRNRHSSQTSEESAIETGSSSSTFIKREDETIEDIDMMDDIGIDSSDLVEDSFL
Chain of Vascular endothelial growth factor receptor 1 (P17948 whole entry): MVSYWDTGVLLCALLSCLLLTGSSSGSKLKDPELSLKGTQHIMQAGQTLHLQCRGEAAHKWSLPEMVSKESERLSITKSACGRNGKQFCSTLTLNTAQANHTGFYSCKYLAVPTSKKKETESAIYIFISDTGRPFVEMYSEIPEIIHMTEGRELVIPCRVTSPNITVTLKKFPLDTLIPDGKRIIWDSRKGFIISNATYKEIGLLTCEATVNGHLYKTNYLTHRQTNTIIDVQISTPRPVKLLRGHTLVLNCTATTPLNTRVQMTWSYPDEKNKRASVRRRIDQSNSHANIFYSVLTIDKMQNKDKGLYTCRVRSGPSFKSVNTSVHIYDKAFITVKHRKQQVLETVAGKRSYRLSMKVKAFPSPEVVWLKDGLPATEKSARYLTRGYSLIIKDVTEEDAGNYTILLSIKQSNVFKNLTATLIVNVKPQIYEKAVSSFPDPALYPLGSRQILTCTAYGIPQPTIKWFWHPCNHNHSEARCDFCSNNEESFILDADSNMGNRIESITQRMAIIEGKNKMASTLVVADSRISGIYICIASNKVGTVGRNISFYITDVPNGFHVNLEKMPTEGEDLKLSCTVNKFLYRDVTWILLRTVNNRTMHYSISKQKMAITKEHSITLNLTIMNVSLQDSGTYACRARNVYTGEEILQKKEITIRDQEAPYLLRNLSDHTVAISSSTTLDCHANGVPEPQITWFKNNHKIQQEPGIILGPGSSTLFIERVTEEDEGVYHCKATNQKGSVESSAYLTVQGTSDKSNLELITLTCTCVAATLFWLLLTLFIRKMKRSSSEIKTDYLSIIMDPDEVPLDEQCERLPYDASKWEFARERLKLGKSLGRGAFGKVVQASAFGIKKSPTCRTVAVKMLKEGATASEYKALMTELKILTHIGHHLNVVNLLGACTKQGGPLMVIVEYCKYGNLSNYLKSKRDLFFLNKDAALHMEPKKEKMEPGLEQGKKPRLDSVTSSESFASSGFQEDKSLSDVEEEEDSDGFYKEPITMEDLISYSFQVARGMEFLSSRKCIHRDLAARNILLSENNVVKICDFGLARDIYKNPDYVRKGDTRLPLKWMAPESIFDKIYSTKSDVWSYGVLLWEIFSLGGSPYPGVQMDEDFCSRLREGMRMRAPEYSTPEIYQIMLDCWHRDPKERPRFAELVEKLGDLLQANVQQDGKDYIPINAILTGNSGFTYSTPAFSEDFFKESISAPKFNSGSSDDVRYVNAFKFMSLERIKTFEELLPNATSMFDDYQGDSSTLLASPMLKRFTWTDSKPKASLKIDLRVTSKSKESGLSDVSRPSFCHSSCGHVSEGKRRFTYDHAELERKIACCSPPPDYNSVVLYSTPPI
Chain of Cyclin-dependent kinase 5 (Q00535 whole entry): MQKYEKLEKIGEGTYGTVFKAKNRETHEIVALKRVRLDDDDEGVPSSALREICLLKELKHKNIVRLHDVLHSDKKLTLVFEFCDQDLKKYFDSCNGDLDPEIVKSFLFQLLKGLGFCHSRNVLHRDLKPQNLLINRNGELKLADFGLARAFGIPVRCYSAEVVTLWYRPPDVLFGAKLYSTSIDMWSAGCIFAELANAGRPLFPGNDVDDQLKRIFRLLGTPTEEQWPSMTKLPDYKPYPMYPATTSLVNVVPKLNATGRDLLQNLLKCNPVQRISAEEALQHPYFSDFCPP

As for `Cc1cccc(CNC(=O)c2cnn3c(-c4ccccc4)ccnc23)c1C`, the Ki was 5.01 µM (active) in test [1]; 2.51 µM (active) in [2]; 7.94 µM (active) in test [3]; 1.58 µM (active) on Aurora kinase B; 2.51 µM (active) in test [4]; 7.94 µM (active) in test [5].
For the molecule `COc1ccc(Oc2c(Cl)cnn(CC(=O)N(c3ccccc3)C(C)C)c2=O)cc1`, the IC50 in [6] and in test [7] was 3.17 µM (active) throughout.
As for `COc1ccccc1-c1ccnc(Nc2cccc(S(C)(=O)=O)c2)n1`, the Ki in test [8] is > 2.51 µM (inactive); in test [9], > 3.98 µM (inactive); in test [10], > 3.16 µM (inactive); in [11], > 2.51 µM (inactive); in test [12], > 3.16 µM (inactive); in [13] it was > 3.16 µM (inactive). Moreover, the Ki in [14] is > 6.31 µM (inactive); in test [15], > 3.16 µM (inactive); in test [16], 0.501 µM (active); in test [17], > 3.98 µM (inactive); in test [18], > 5.01 µM (inactive); on Activin receptor type-1, 0.2 µM (active). Also, the Ki in [19] was 0.794 µM (active); in test [1], > 6.31 µM (inactive); at Aurora kinase A, 0.398 µM (active); in test [20] it was > 6.31 µM (inactive); in [21], > 5.01 µM (inactive); in test [22], 2.51 µM (active). In addition, the Ki in test [23] was > 5.01 µM (inactive); in test [24], 2.51 µM (active); at LIM domain kinase 1, > 3.16 µM (inactive); in test [25], 2.51 µM (active); in test [26] it was > 3.16 µM (inactive); in [3] it was 0.316 µM (active). Moreover, the Ki in test [27] was > 2.51 µM (inactive); in test [28] it was 2.51 µM (active); on Activated CDC42 kinase 1 it was > 3.98 µM (inactive); in test [29], 2.51 µM (active); in [30], > 3.16 µM (inactive); in [31] it was 0.501 µM (active). Besides, the Ki was 1 µM (active) in [32]; > 3.98 µM (inactive) in test [33]; 0.501 µM (active) in [34]; > 2.51 µM (inactive) in [35]; 0.794 µM (active) in [36]; > 3.16 µM (inactive) in [37]. Besides, the Ki is > 2.51 µM (inactive) in test [38]; 0.631 µM (active) in test [39]; 0.794 µM (active) at Aurora kinase B; > 3.98 µM (inactive) in [40]; > 6.31 µM (inactive) in test [41]; > 3.98 µM (inactive) in test [42]. Besides, the Ki is > 3.98 µM (inactive) in test [43]; 3.16 µM (active) in test [44]; 0.398 µM (active) in [45]; 0.0316 µM (active) in test [46]; 3.98 µM (active) in [47]; > 1.26 µM (inactive) in [48]. Further, the Ki is 0.501 µM (active) in [49]; 3.98 µM (active) in test [50]; > 2.51 µM (inactive) in [51]; > 3.98 µM (inactive) in [52]; > 2 µM (inactive) in test [53]; > 3.16 µM (inactive) in test [54]. For the same molecule, the Ki in [55] is 1 µM (active); in [56] it was > 2.51 µM (inactive); in [57] it was > 3.98 µM (inactive).
